Source: ChEMBL document CHEMBL1148519, “Antitumor activity of tetrahydroisoquinoline analogues 3-epi-jorumycin and 3-epi-renieramycin G” (2006)

Experiments:
[1] = tested on: A549; test: Antiproliferative activity against human A549 cell line; format: functional
[2] = tested on: HCT-116; test: Antiproliferative activity against human HCT116 cell line; format: functional

| SMILES | GI50 [1] | GI50 [2] |
| --- | --- | --- |
| COC1=C(C)C(=O)C2=C(C1=O)[C@@H]1[C@H]3CC4=C(C(=O)C(OC)=C(C)C4=O)[C@H](COC(C)=O)N3[C@@H](O)[C@H](C2)N1C | 4.64 µM | 610 nM |
| COC1=C(C)C(=O)C2=C(C1=O)[C@@H]1[C@@H]3CC4=C(C(=O)C(OC)=C(C)C4=O)[C@H](COC(C)=O)N3[C@@H](O)[C@H](C2)N1C | 0.0192 µM | 1.9 nM |
| C/C=C(/C)C(=O)OC[C@H]1C2=C(C[C@@H]3[C@H]4C5=C(C[C@@H](C(=O)N31)N4C)C(=O)C(C)=C(OC)C5=O)C(=O)C(C)=C(OC)C2=O [3-EPI-RENIERAMYCIN G] | 10.1 µM | 1400 nM |
| C/C=C(/C)C(=O)OC[C@H]1C2=C(C[C@H]3[C@H]4C5=C(C[C@@H](C(=O)N13)N4C)C(=O)C(C)=C(OC)C5=O)C(=O)C(C)=C(OC)C2=O [(-)-RENIERAMYCIN G] | 12.9 µM | 3870 nM |
